Measured values as given in US20260226048A1, “MULTI-CYCLIC IRAK AND FLT3 INHIBITING COMPOUNDS AND USES THEREOF” (CHILDREN'S HOSPITAL MEDICAL CENTER, priority 2023, published 2026).
pKd: −log10 of the molar value.

Key:
[1] = target: T1, FLT3 ITD, F691L (Homo sapiens, UniProt P36888, F691L, form not given); test: DiscoverX KINOMEscan competition binding assay, FLT3 ITD, F691L; conditions: 11-point 3-fold dilution
T1 construct: fused on or other part: DNA tag for qPCR detection (kinase-tagged T7 phage, or made in HEK-293 cells and then tagged with DNA)
T1 sequence (P36888 1-993 F691L): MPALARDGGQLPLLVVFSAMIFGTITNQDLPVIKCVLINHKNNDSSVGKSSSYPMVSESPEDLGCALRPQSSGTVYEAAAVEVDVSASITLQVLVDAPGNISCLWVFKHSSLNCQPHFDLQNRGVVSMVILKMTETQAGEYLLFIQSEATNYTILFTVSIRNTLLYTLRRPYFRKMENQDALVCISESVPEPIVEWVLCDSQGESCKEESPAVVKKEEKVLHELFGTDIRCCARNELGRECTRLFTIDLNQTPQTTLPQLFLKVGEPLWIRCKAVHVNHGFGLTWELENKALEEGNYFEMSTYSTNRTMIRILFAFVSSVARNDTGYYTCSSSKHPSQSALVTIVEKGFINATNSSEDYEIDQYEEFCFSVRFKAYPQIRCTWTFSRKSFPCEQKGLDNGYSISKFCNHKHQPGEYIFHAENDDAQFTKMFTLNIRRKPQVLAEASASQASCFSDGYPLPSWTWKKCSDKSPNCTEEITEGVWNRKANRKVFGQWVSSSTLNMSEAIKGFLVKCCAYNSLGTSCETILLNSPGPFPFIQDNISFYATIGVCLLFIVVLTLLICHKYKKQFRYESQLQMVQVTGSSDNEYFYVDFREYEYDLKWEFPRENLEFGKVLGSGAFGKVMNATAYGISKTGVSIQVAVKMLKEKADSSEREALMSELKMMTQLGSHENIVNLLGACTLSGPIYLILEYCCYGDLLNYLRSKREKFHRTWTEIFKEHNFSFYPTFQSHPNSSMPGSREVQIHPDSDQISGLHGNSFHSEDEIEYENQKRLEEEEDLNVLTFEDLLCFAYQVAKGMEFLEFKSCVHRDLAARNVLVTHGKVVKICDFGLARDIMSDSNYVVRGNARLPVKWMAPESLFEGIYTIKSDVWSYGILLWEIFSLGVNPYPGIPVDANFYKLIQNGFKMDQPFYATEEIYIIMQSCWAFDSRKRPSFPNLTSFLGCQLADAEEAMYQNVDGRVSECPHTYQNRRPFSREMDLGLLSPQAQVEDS
Excerpt: (§1) […]. […] As a result, the data report thermodynamic interaction affinities (Kd values), rather than IC50 values that are dependent on ATP concentrations. The assay uses a DNA-tagged version of the protein kinase, and an immobilized ligand bound to a solid support. Compounds that directly or indirectly prevent kinase binding to the immobilized ligand reduce the amount of kinase captured on the solid support, which is detected using an ultra-sensitive qPCR method. Affinity constants reported from the assay have been reported to be independent of the immobilized ligand used that is coupled to the solid support (See supplemental information in Fabian, M. A. et. al., (2005) Nat. Biotechnol. 23, 329-336; Wodicka, L. M. et. al., (2010) Chem. Biol. 17, 1241-1249.)
(§2) Kinase-tagged T7 phage strains were prepared in an E. coli host derived from the BL21 strain. E. coli were grown to log-phase and infected with T7 phage and incubated with shaking at 32° C. until lysis. The lysates were centrifuged and filtered to remove cell debris. The remaining kinases were produced in HEK-293 cells and subsequently tagged with DNA for qPCR detection. Streptavidin-coated magnetic beads were treated with biotinylated small molecule ligands for 30 minutes at room temperature to generate affinity resins for kinase assays. The liganded beads were blocked with excess biotin and washed with blocking buffer (SeaBlock (Pierce), 1% BSA, 0.05% Tween 20, 1 mM DTT) to remove unbound ligand and to reduce non-specific binding. […] Test compounds were prepared as 111× stocks in 100% DMSO. Kds were determined using an 11-point 3-fold compound dilution series with three DMSO control points. All compounds for Kd measurements are distributed by acoustic transfer (non-contact dispensing) in 100% DMSO. The compounds were then diluted directly into the assays such that the final concentration of DMSO was 0.9%. All reactions were performed in polypropylene 384-well plates. Each was a final volume of 0.02 mL. […] The kinase concentration in the eluates was measured by qPCR.
(§3) Binding constants (Kds) were calculated with a standard dose-response curve using the Hill equation. The Hill Slope was set to −1. Curves were fitted using a non-linear least square fit with the Levenberg-Marquardt algorithm.

[2] = target: T2, FLT3 R834Q (Homo sapiens, UniProt P36888, R834Q); test: DiscoverX KINOMEscan competition binding assay, FLT3 R834Q; conditions: 11-point 3-fold dilution
T2 construct: purchased DiscoverX (KINOMEscan); host or cells: E. coli BL21-derived host (T7 phage) or HEK-293
T2 sequence (P36888 27-993 R834Q): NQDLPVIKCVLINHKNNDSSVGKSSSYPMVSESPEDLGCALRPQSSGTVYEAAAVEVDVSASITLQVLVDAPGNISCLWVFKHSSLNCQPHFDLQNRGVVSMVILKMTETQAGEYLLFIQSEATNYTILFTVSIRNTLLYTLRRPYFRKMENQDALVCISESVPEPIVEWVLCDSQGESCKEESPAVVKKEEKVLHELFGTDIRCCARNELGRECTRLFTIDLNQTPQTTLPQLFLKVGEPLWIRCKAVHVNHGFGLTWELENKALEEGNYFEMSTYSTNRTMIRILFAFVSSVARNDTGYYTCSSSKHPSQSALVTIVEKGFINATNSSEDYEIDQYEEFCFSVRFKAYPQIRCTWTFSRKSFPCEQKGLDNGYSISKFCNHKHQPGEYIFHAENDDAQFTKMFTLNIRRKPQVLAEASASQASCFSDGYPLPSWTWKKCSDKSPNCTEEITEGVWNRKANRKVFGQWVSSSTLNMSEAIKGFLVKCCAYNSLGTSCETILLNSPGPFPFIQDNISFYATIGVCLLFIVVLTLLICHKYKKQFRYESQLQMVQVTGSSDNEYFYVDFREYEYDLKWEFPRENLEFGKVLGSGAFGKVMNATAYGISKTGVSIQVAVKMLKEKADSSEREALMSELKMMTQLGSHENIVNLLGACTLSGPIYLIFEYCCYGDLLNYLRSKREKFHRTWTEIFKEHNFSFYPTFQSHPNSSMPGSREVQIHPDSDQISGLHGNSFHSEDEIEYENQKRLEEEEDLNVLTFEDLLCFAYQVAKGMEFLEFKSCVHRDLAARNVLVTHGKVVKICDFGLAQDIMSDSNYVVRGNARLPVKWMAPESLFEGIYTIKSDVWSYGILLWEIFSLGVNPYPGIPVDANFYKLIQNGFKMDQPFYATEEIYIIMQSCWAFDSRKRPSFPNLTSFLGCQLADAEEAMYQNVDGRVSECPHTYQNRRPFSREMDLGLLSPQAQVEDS
Excerpt: as §1, §2, §3

Compound	pKd [1]	pKd [2]
COc1cc2ncc(-c3nc(N[C@H]4CNCC[C@@H]4F)ncc3F)n2nc1N1CCCS1(=O)=O [Compound 112a, 2-(3-(5-fluoro-2-(((3S,4S)-4-fluoropiperidin-3-yl)amino)pyrimidin-4-yl)-7-methoxyimidazo[1,2-b]pyridazin-6-yl)isothiazolidine 1,1-dioxide]	> 9.77	9.55
COc1cc2ncc(-c3nc(N[C@H]4CNCC[C@@H]4F)ncc3F)n2nc1C(C)(C)O [Compound 45a, 2-(3-(5-fluoro-2-(((3S,4S)-4-fluoropiperidin-3-yl)amino)pyrimidin-4-yl)-7-methoxyimidazo[1,2-b]pyridazin-6-yl)propan-2-ol]	9.72	8.23
COc1cc2ncc(-c3nc(N[C@H]4CNCC[C@@H]4F)ncc3F)n2nc1C1COC1 [Compound 92a, 5-fluoro-N-((3S,4S)-4-fluoropiperidin-3-yl)-4-(7-methoxy-6-(oxetan-3-yl)imidazo[1,2-b]pyridazin-3-yl)pyrimidin-2-amine]	> 9.77	9.11
FC(F)COc1cc2ncc(-c3ccnc(N[C@H]4CNCC[C@@H]4F)n3)n2nc1C1CC1 [Compound 4a, 4-(6-cyclopropyl-7-(2,2-difluoroethoxy)imidazo[1,2-b]pyridazin-3-yl)-N-((3 S,4S)-4-fluoropiperidin-3-yl)pyrimidin-2-amine]	> 9.77	9.16
CC(C)(O)c1ccc2ncc(-c3nc(N[C@H]4CNCC[C@@H]4F)ncc3F)n2c1 [Compound 46a, 2-(3-(5-fluoro-2-(((3S,4S)-4-fluoropiperidin-3-yl)amino)pyrimidin-4-yl)imidazo[1,2-a]pyridin-6-yl)propan-2-ol]	9.66	8.36
COc1cc2ncc(-c3nc(N[C@H]4CNCC[C@@H]4F)ncc3F)n2nc1C1CC1 [Compound 1a, 4-(6-cyclopropyl-7-methoxyimidazo[1,2-b]pyridazin-3-yl)-5-fluoro-N-((3S,4S)-4-fluoropiperidin-3-yl)pyrimidin-2-amine]	> 9.77	> 9.77
CC(C)(O)c1cn2c(-c3nc(N[C@H]4CNCC[C@@H]4F)ncc3F)cnc2cn1 [Compound 100a, 2-(3-(5-fluoro-2-(((3S,4S)-4-fluoropiperidin-3-yl)amino)pyrimidin-4-yl)imidazo[1,2-a]pyrazin-6-yl)propan-2-ol]	8.47	7.40
